# Publication PMC3582657 (Clinical pharmacology and therapeutics, 2008)
# Several values for one entry are separate records, joined by “and”; a condition that tells them apart may be missing. Equal entries are not always repeated. Where two headings read alike, the source gives them in different places.
# Assays:
# [1] = background statement, no reference given; cited from earlier work
# [2] = mean±SD; for CL renal: human, urine, CLr (renal clearance)
# [3] = type: in vivo, human
# [4] = Safety assessment in the clinical study; type: in vivo, human
# P-glycoprotein (P-gp) = settings: cited from earlier work
# [5] = multiple doses of rifampin; cited from earlier work
# blood glucose [6] = test: Blood glucose level after glyburide dosing; type: in vivo, human; settings: rifampin IV (Treatment C) phase in comparison to other treatment groups; repeated ANOVA p<0.0001
# blood glucose [7] = settings: concomitant rifampin versus control; cited from earlier work
# [8] = Treatment A: 1.25 mg oral glyburide alone (control), mean±SD, n=9
# [9] = Treatment A: 1.25 mg oral glyburide alone (control), median and range
# [10] = Treatment A: 1.25 mg oral glyburide alone (control), plasma, mean±SD, n=9
# [11] = Treatment B (ciprofloxacin IV phase) vs Treatment A
# [12] = Treatment B: 200 mg iv ciprofloxacin just before 1.25 mg oral glyburide, median and range
# [13] = Treatment C (rifampin IV phase) vs Treatment A
# [14] = Treatment C: single 600 mg iv rifampin then 1.25 mg oral glyburide, mean±SD, n=9
# [15] = Treatment D (rifampin IV after oral induction) compared with Treatment E
# [16] = Treatment D (rifampin IV after oral induction) compared with control Treatment A
# [17] = Treatment D (rifampin IV/PO phase) vs Treatment A
# [18] = Treatment D: 600 mg oral rifampin daily for 6 days, next day 600 mg iv rifampin then 1.25 mg oral glyburide, median and range
# [19] = Treatment E (rifampin PO phase) vs Treatment A
# [20] = iv rifampin effect under induced conditions (Treatment D / Treatment E)
# [21] = iv rifampin effect under noninduced conditions (Treatment C / Treatment A)
# [22] = single IV infusion of rifampin (Treatment C) compared with control Treatment A
# [23] = single IV infusion of rifampin (Treatment C) vs control Treatment A
compound,measurement,setting,value
COc1ccc(Cl)cc1C(=O)NCCc1ccc(S(=O)(=O)NC(=O)N[C@@H]2CCC[C@H](O)C2)cc1 (relative stereo) [3-cis-hydroxyglyburide],hypoglycemic activity (potency) retained relative to the parent compound,[1],50%
"COc1ccc(Cl)cc1C(=O)NCCc1ccc(S(=O)(=O)NC(=O)NC2CCC(O)CC2)cc1 (stereo not drawn) [4-hydroxyglyburide, 4-trans-hydroxyglyburide]",hypoglycemic activity (potency) retained relative to the parent compound,[1],75%
same,0–12h accumulated urine excretion,"[2]; Treatment A, glyburide control",358 ± 107 µg
same,CLr (renal clearance),"[2]; Treatment A, glyburide control",2200 ± 619 mL/day/kg
same,0–12h accumulated urine excretion,"[2]; Treatment B, ciprofloxacin IV",325 ± 77 µg
same,CLr (renal clearance),"[2]; Treatment B, ciprofloxacin IV",2220 ± 564 mL/day/kg
same,0–12h accumulated urine excretion,"[2]; Treatment C, rifampin IV",457 ± 72 µg
same,CLr (renal clearance),"[2]; Treatment C, rifampin IV",2120 ± 629 mL/day/kg
same,0–12h accumulated urine excretion,"[2]; Treatment D, rifampin IV/PO",208±56 ^** ug
same,CLr (renal clearance),"[2]; Treatment D, rifampin IV/PO",2100 ± 401 mL/day/kg
same,0–12h accumulated urine excretion,"[2]; Treatment E, rifampin PO",135 ± 40 µg
same,CLr (renal clearance),"[2]; Treatment E, rifampin PO",2200 ± 665 mL/day/kg
same,AUCm/AUCp (AUC ratio of 4-hydroxyglyburide to glyburide),"[3]; Treatment A, glyburide control, mean±SD",3.67±1.03%
same,MRT,[3]; [8],1.6 ± 0.9 h
same,t1/2,[3]; [8],4.2 ± 1.7 h
same,Tmax,[3]; [9],4(3–6) h
same,AUC0-∞,[3]; [10],66.0 ± 23.2 ng·h/mL
same,Cmax,[3]; [10],9.67 ± 2.51 ng/mL
same,"AUC0-∞, mean % of control",[3]; [11],101 % of control
same,"Cmax, mean % of control",[3]; [11],99 % of control
same,"MRT, mean % of control",[3]; [11],89 % of control
same,"t1/2, mean % of control",[3]; [11],115 % of control
same,AUCm/AUCp (AUC ratio of 4-hydroxyglyburide to glyburide),"[3]; Treatment B, ciprofloxacin IV, mean±SD",3.34±0.37%
same,Tmax,[3]; [12],4(3–8) h
same,"AUC0-∞, mean % of control",[3]; [13],145 % of control
same,"Cmax, mean % of control",[3]; [13],134 % of control
same,"MRT, mean % of control",[3]; [13],121 % of control
same,"t1/2, mean % of control",[3]; [13],102 % of control
same,AUCm/AUCp (AUC ratio of 4-hydroxyglyburide to glyburide),"[3]; Treatment C, rifampin IV, mean±SD",2.36±0.61 %
same,MRT,[3]; [14],1.5 ± 0.8 h
same,t1/2,[3]; [14],3.8 ± 0.7 h
same,Tmax,"[3]; Treatment C: single 600 mg iv rifampin then 1.25 mg oral glyburide, median and range",4(3–6) h
same,increase in AUC,[3]; [15],67±44%
same,increase in Cmax,[3]; [15],49±44%
same,decrease in Cmax,[3]; [16],not significant
same,"AUC0-∞, mean % of control",[3]; [17],54 % of control
same,"Cmax, mean % of control",[3]; [17],81 % of control
same,"MRT, mean % of control",[3]; [17],77 % of control
same,decrease in mean residence time (MRT),[3]; Treatment D versus control Treatment A,23%
same,AUCm/AUCp (AUC ratio of 4-hydroxyglyburide to glyburide),"[3]; Treatment D, rifampin IV/PO, mean±SD",2.52±0.35 %
same,Tmax,[3]; [18],4(3–6) h
same,"AUC0-∞, mean % of control",[3]; [19],33 % of control
same,"Cmax, mean % of control",[3]; [19],56 % of control
same,"MRT, mean % of control",[3]; [19],41 % of control
same,AUCm/AUCp (AUC ratio of 4-hydroxyglyburide to glyburide),"[3]; Treatment E, rifampin PO, mean±SD",3.36±0.60%
same,"AUC0-∞, ratio D to E",[3]; [20],1.7±0.4
same,"Cmax, ratio D to E",[3]; [20],1.5±0.4
same,"MRT, ratio D to E",[3]; [20],1.3±1.3
same,"AUC0-∞, ratio C to A",[3]; [21],1.5±0.4
same,"Cmax, ratio C to A",[3]; [21],1.3±0.5
same,"MRT, ratio C to A",[3]; [21],1.2±0.9
same,increase in AUC0-∞,[3]; [22],45 ± 37%
same,increase in Cmax,[3]; [22],34 ± 47%
CO[C@H]1/C=C/O[C@@]2(C)Oc3c(C)c(O)c4c(O)c(c(/C=N/N5CCN(C)CC5)c(O)c4c3C2=O)NC(=O)/C(C)=C\C=C\[C@H](C)[C@H](O)[C@@H](C)[C@@H](O)[C@@H](C)[C@H](OC(C)=O)[C@@H]1C [rifampin],adverse event leading to withdrawal,"[4]; one subject, after visit 3",allergy to rifampin
same,inhibition of Pgp,P-glycoprotein (P-gp),does not inhibit Pgp
COc1ccc(Cl)cc1C(=O)NCCc1ccc(S(=O)(=O)NC(=O)NC2CCCCC2)cc1 [glyburide],serious adverse events,"[4]; during or after the study, all treatments",No serious adverse events
same,decrease in AUC of glyburide by rifampin,[5],39%
same,decrease in maximal concentration (Cmax) of glyburide by rifampin,[5],22%
same,decremental AUC0–12 of blood glucose,blood glucose [6],statistically significant decrease
same,change in blood glucose decremental AUC(0–7) (net area below baseline),blood glucose [7],−44%
same,change in maximum decrease in the blood glucose concentration,blood glucose [7],−36%
same,0–12h accumulated urine excretion,"[2]; Treatment A, glyburide control",1.8 ± 1.1 µg
same,0–12h accumulated urine excretion,"[2]; Treatment B, ciprofloxacin IV",1.7 ± 0.6 µg
same,0–12h accumulated urine excretion,"[2]; Treatment C, rifampin IV",3.9 ± 1.3 µg
same,0–12h accumulated urine excretion,"[2]; Treatment D, rifampin IV/PO",1.4 ± 0.5 µg
same,0–12h accumulated urine excretion,"[2]; Treatment E, rifampin PO",1.3 ± 0.7 µg
same,CL renal,"[2]; iv, Treatment B, ciprofloxacin IV",0.36 mL/day/kg
same,CL renal,"[2]; iv, Treatment C, rifampin IV",0.384 mL/day/kg
same,CL renal,"[2]; oral, 1.25 mg, Treatment A, glyburide control",0.408 mL/day/kg
same,CL renal,"[2]; oral, Treatment D, rifampin IV/PO",0.384 mL/day/kg
same,CL renal,"[2]; po, 1.25 mg, Treatment E, rifampin PO",0.744 mL/day/kg
same,CL/F,[3]; [8],10.1±3.1 mI/h/kg
same,Vss/F,[3]; [8],49±33 mI/kg
same,Tmax,[3]; [9],3(2–4) h
same,"AUC0-∞, mean % of control",[3]; [11],107 % of control
same,"Cmax, mean % of control",[3]; [11],95 % of control
same,"MRT, mean % of control",[3]; [11],119 % of control
same,"t1/2, mean % of control",[3]; [11],108 % of control
same,Tmax,[3]; [12],3(2–6) h
same,"AUC0-∞, mean % of control",[3]; [13],225 % of control
same,"Cmax, mean % of control",[3]; [13],181 % of control
same,"MRT, mean % of control",[3]; [13],84 % of control
same,"t1/2, mean % of control",[3]; [13],84 % of control
same,CL/F,[3]; [14],4.59±1.20 mI/h/kg
same,Vss/F,[3]; [14],16±7 mI/kg
same,increase in AUC,[3]; [15],120±56%
same,increase in Cmax,[3]; [15],92±76%
same,decrease in AUC0-∞,[3]; [16],22±21% and 22%
same,decrease in Cmax,[3]; [16],9±0.3% and 8%
same,"AUC0-∞, mean % of control",[3]; [17],78 % of control
same,"Cmax, mean % of control",[3]; [17],91 % of control
same,"MRT, mean % of control",[3]; [17],61 % of control
same,Tmax,[3]; [18],3(2–4) h
same,"AUC0-∞, mean % of control",[3]; [19],37 % of control
same,"Cmax, mean % of control",[3]; [19],52 % of control
same,"MRT, mean % of control",[3]; [19],53 % of control
same,change in any pharmacokinetic parameter,[3]; ciprofloxacin co-administered with glyburide (Treatment B) vs Treatment A,No significant changes in any parameter
same,Tmax,"[3]; human, plasma, oral",3 h
same,Tmax,"[3]; human, plasma, po, 1.25 mg",3 h
same,AUC(0-inf),"[3]; human, plasma, po, 1.25 mg, AUC0-∞, Treatment A: 1.25 mg oral glyburide alone (control), plasma, mean±SD, n=9",1890 ± 682 ng·h/mL
same,Cmax,"[3]; human, plasma, po, 1.25 mg, Cmax, Treatment A: 1.25 mg oral glyburide alone (control), plasma, mean±SD, n=9",384 ± 135 ng/mL
same,MRT,"[3]; human, plasma, po, 1.25 mg, MRT, Treatment A: 1.25 mg oral glyburide alone (control), mean±SD, n=9",4.5 ± 2 h
same,half-life,"[3]; human, plasma, po, 1.25 mg, t1/2, Treatment A: 1.25 mg oral glyburide alone (control), mean±SD, n=9",4.7 ± 1.3 h
same,increase in AUC0-∞,[3]; [22],125± 51.5% and 125%
same,increase in Cmax,[3]; [22],81 ± 28% and 81%
same,change in apparent terminal half-life (t1/2),[3]; single IV infusion of rifampin (Treatment C) vs control,did not change
same,decrease in oral clearance (CL/F),[3]; [23],53 ± 13%
same,decrease in oral steady-state volume of distribution (Vss/F),[3]; [23],60 ± 29%
